Laboratory results: ChEMBL document CHEMBL4028802, “DILIrank: the largest reference drug list ranked by the risk for developing drug-induced liver injury in humans” (Drug Discov Today, 2016)
Non-standard residues stand in square brackets, D forms with d. Residues, ends and D or L forms follow the SMILES beside them. d(hArg(Et2)) = CCN=C(NCC)NCCCC[C@@H](N)C(=O)O; hArg(Et2) = CCN=C(NCC)NCCCC[C@H](N)C(=O)O; dPhe(4-Cl) = N[C@H](Cc1ccc(Cl)cc1)C(=O)O; d2Nal = N[C@H](Cc1ccc2ccccc2c1)C(=O)O; d3Pal = N[C@H](Cc1cccnc1)C(=O)O

Assays:
Homo sapiens [1] = species: Homo sapiens; experiment: Liver toxicity in human assessed as induction of drug-induced liver injury by measuring verified drug-induced liver injury concern status
Homo sapiens [2] = species: Homo sapiens; experiment: Liver toxicity in human assessed as induction of drug-induced liver injury by measuring severity class index
For DILI severity class in this document: key of the grades not given here.

Row | Structure (SMILES) | DILI_Concern (Homo sapiens [1]) | DILI_severity_class (Homo sapiens [2])
1 | CC(=O)O.CC(=O)O.CC/N=C(\NCC)NCCCC[C@H](NC(=O)[C@H](CC(C)C)NC(=O)[C@@H](CCCCN/C(=N/CC)NCC)NC(=O)[C@H](Cc1ccc(O)cc1)NC(=O)[C@H](CO)NC(=O)[C@@H](Cc1cccnc1)NC(=O)[C@@H](Cc1ccc(Cl)cc1)NC(=O)[C@@H](Cc1ccc2ccccc2c1)NC(C)=O)C(=O)N1CCC[C@H]1C(=O)N[C@H](C)C(N)=O [GANIRELIX ACETATE] (Ac-[d2Nal][dPhe(4-Cl)][d3Pal]SY[d(hArg(Et2))]L[hArg(Et2)]P[dA]-NH2) | No-Dili-Concern | 0
2 | COc1cc2ncnc(Nc3ccc(F)c(Cl)c3)c2cc1OCCCN1CCOCC1 [GEFITINIB] | Most-Dili-Concern | 4
3 | Nc1ccn([C@@H]2O[C@H](CO)[C@@H](O)C2(F)F)c(=O)n1 [GEMCITABINE] | Most-Dili-Concern | 8
4 | Cc1ccc(C)c(OCCCC(C)(C)C(=O)O)c1 [GEMFIBROZIL] | Most-Dili-Concern | 4
5 | CO/N=C1\CN(c2nc3c(cc2F)c(=O)c(C(=O)O)cn3C2CC2)CC1CN (centres undefined) [GEMIFLOXACIN] | Less-Dili-Concern | 3
6 | O=C(OCC(O)CO)c1ccccc1Nc1ccnc2cc(Cl)ccc12 (centres undefined) [GLAFENINE] | Most-Dili-Concern | 8
7 | CCC1=C(C)CN(C(=O)NCCc2ccc(S(=O)(=O)NC(=O)N[C@H]3CC[C@H](C)CC3)cc2)C1=O [GLIMEPIRIDE] | Less-Dili-Concern | 7
8 | Cc1cnc(C(=O)NCCc2ccc(S(=O)(=O)NC(=O)NC3CCCCC3)cc2)cn1 [GLIPIZIDE] | Less-Dili-Concern | 3
9 | NC(=O)CC[C@H](N)C(=O)O [GLUTAMINE] | Ambiguous-Dili-Concern | 3
10 | COc1ccc(Cl)cc1C(=O)NCCc1ccc(S(=O)(=O)NC(=O)NC2CCCCC2)cc1 [GLYBURIDE] | Less-Dili-Concern | 3
11 | C[N+]1(C)CCC(OC(=O)C(O)(c2ccccc2)C2CCCC2)C1 (centres undefined) [GLYCOPYRRONIUM] | No-Dili-Concern | 0
12 | CC(C)C[C@H](NC(=O)[C@@H](COC(C)(C)C)NC(=O)[C@H](Cc1ccc(O)cc1)NC(=O)[C@H](CO)NC(=O)[C@H](Cc1c[nH]c2ccccc12)NC(=O)[C@H](Cc1cnc[nH]1)NC(=O)[C@@H]1CCC(=O)N1)C(=O)N[C@@H](CCCNC(=N)N)C(=O)N1CCC[C@H]1C(=O)NNC(N)=O [GOSERELIN] | Ambiguous-Dili-Concern | 3
13 | CN1C2CCCC1CC(NC(=O)c1nn(C)c3ccccc13)C2 (centres undefined) [GRANISETRON] | Ambiguous-Dili-Concern | 3
14 | COC1=CC(=O)C[C@@H](C)[C@]12Oc1c(Cl)c(OC)cc(OC)c1C2=O [GRISEOFULVIN] | Most-Dili-Concern | 8
15 | COc1ccccc1OCC(O)CO (centres undefined) [GUAIFENESIN] | No-Dili-Concern | 0
16 | N=C(N)NCCN1CCCCCCC1 [GUANETHIDINE] | No-Dili-Concern | 0
17 | N=C(N)NC(=O)Cc1c(Cl)cccc1Cl [GUANFACINE] | Ambiguous-Dili-Concern | 3
18 | N=C(N)N [GUANIDINE] | Ambiguous-Dili-Concern | 3
19 | CCCCCCCCCC(=O)OC1(c2ccc(Cl)cc2)CCN(CCCC(=O)c2ccc(F)cc2)CC1 [HALOPERIDOL DECANOATE] | Ambiguous-Dili-Concern | 3

Row | Structure (SMILES) | DILI_Concern (Homo sapiens [1]) | DILI_severity_class (Homo sapiens [2])
20 | O=C(CCCN1CCC(O)(c2ccc(Cl)cc2)CC1)c1ccc(F)cc1 [HALOPERIDOL] | Less-Dili-Concern | 5
21 | NCCc1c[nH]cn1.O=P(O)(O)O.O=P(O)(O)O [HISTAMINE PHOSPHATE] | No-Dili-Concern | 0
22 | CC(=O)O.CCNC(=O)[C@@H]1CCCN1C(=O)[C@H](CCCNC(=N)N)NC(=O)[C@H](CC(C)C)NC(=O)[C@@H](Cc1cn(Cc2ccccc2)cn1)NC(=O)[C@H](Cc1ccc(O)cc1)NC(=O)[C@H](CO)NC(=O)[C@H](Cc1c[nH]c2ccccc12)NC(=O)[C@H](Cc1cnc[nH]1)NC(=O)[C@@H]1CCC(=O)N1 [HISTRELIN ACETATE] | Ambiguous-Dili-Concern | 3
23 | NNc1nncc2ccccc12 [HYDRALAZINE] | Less-Dili-Concern | 3
24 | NS(=O)(=O)c1cc2c(cc1Cl)NCNS2(=O)=O [HYDROCHLOROTHIAZIDE] | Less-Dili-Concern | 2
25 | C[C@]12CCC(=O)C=C1CC[C@@H]1[C@@H]2[C@@H](O)C[C@@]2(C)[C@H]1CC[C@]2(O)C(=O)CO [HYDROCORTISONE] | No-Dili-Concern | 0
26 | NS(=O)(=O)c1cc2c(cc1C(F)(F)F)NCNS2(=O)=O [HYDROFLUMETHIAZIDE] | Ambiguous-Dili-Concern | 2
27 | CN1CC[C@]23c4c5ccc(O)c4O[C@H]2C(=O)CC[C@H]3[C@H]1C5 [HYDROMORPHONE] | Ambiguous-Dili-Concern | 3
28 | CCN(CCO)CCCC(C)Nc1ccnc2cc(Cl)ccc12 (centres undefined) [HYDROXYCHLOROQUINE] | Less-Dili-Concern | 7
29 | CCCCCC(=O)O[C@]1(C(C)=O)CC[C@H]2[C@@H]3CCC4=CC(=O)CC[C@]4(C)[C@H]3CC[C@@]21C [HYDROXYPROGESTERONE CAPROATE] | Ambiguous-Dili-Concern | 2
30 | NC(=O)NO [HYDROXYUREA] | Most-Dili-Concern | 8
31 | OCCOCCN1CCN(C(c2ccccc2)c2ccc(Cl)cc2)CC1 (centres undefined) [HYDROXYZINE] | No-Dili-Concern | 0
32 | CCCCCN(C)CCC(O)(P(=O)(O)O)P(=O)(O)O [IBANDRONIC ACID] | No-Dili-Concern | 0
33 | CC(C)Cc1ccc(CC(=O)O)cc1 [IBUFENAC] | Most-Dili-Concern | 8
34 | CC(C)Cc1ccc(C(C)C(=O)O)cc1 (centres undefined) [IBUPROFEN] | Less-Dili-Concern | 3
35 | CCCCCCCN(CC)CCCC(O)c1ccc(NS(C)(=O)=O)cc1 (centres undefined) [IBUTILIDE] | No-Dili-Concern | 0
36 | CC(=O)[C@]1(O)Cc2c(O)c3c(c(O)c2[C@@H](O[C@H]2C[C@H](N)[C@H](O)[C@H](C)O2)C1)C(=O)c1ccccc1C3=O [IDARUBICIN] | Ambiguous-Dili-Concern | 3
37 | O=P1(NCCCl)OCCCN1CCCl (centres undefined) [IFOSFAMIDE] | Less-Dili-Concern | 4
38 | COc1cc(C(C)=O)ccc1OCCCN1CCC(c2noc3cc(F)ccc23)CC1 [ILOPERIDONE] | Ambiguous-Dili-Concern | 2

Row | Structure (SMILES) | DILI_Concern (Homo sapiens [1]) | DILI_severity_class (Homo sapiens [2])
39 | Cc1ccc(NC(=O)c2ccc(CN3CCN(C)CC3)cc2)cc1Nc1nccc(-c2cccnc2)n1 [IMATINIB] | Most-Dili-Concern | 8
40 | Nc1cc(-c2ccncc2)c[nH]c1=O [INAMRINONE] | Ambiguous-Dili-Concern | 5
41 | CC1Cc2ccccc2N1NC(=O)c1ccc(Cl)c(S(N)(=O)=O)c1 (centres undefined) [INDAPAMIDE] | Ambiguous-Dili-Concern | 5
42 | CC1(C)C(/C=C/C=C/C=C/C=C2/N(CCCCS(=O)(=O)[O-])c3ccc4ccccc4c3C2(C)C)=[N+](CCCCS(=O)(=O)[O-])c2ccc3ccccc3c21.[Na+] [INDOCYANINE GREEN] | No-Dili-Concern | 0
43 | COc1ccc2c(c1)c(CC(=O)O)c(C)n2C(=O)c1ccc(Cl)cc1 [INDOMETHACIN] | Most-Dili-Concern | 8
44 | CNC[C@H](O)[C@@H](O)[C@H](O)[C@H](O)CO.CNC[C@H](O)[C@@H](O)[C@H](O)[C@H](O)CO.O=C(CCCCC(=O)Nc1c(I)cc(I)c(C(=O)O)c1I)Nc1c(I)cc(I)c(C(=O)O)c1I [IODIPAMIDE MEGLUMINE] | No-Dili-Concern | 0
45 | CNC(=O)c1c(I)c(NC(C)=O)c(I)c(C(=O)[O-])c1I.[Na+] [IOTHALAMATE SODIUM] | No-Dili-Concern | 0
46 | O=C(NCC(O)CO)c1c(I)c(C(=O)NCC(O)CO)c(I)c(N(CCO)C(=O)CO)c1I (centres undefined) [IOVERSOL] | No-Dili-Concern | 0
47 | CC(C)NNC(=O)c1ccncc1 [IPRONIAZID] | Most-Dili-Concern | 8
48 | CCCCC1=NC2(CCCC2)C(=O)N1Cc1ccc(-c2ccccc2-c2nnn[nH]2)cc1 [IRBESARTAN] | Less-Dili-Concern | 5
49 | CCc1c2c(nc3ccc(OC(=O)N4CCC(N5CCCCC5)CC4)cc13)-c1cc3c(c(=O)n1C2)COC(=O)[C@]3(O)CC [IRINOTECAN] | Less-Dili-Concern | 3
50 | CC(C)Nc1ncccn1 [ISAXONINE] | Most-Dili-Concern | 8
51 | Cc1cc(C(=O)NNCc2ccccc2)no1 [ISOCARBOXAZID] | Ambiguous-Dili-Concern | 5
52 | NNC(=O)c1ccncc1 [ISONIAZID] | Most-Dili-Concern | 8
53 | CC(C)NCC(O)c1ccc(O)c(O)c1 (centres undefined) [ISOPROTERENOL] | No-Dili-Concern | 0
54 | O=[N+]([O-])O[C@H]1CO[C@H]2[C@@H]1OC[C@H]2O[N+](=O)[O-] [ISOSORBIDE DINITRATE] | No-Dili-Concern | 0
55 | CC1=C(/C=C/C(C)=C/C=C/C(C)=C\C(=O)O)C(C)(C)CCC1 [ISOTRETINOIN] | Most-Dili-Concern | 5
56 | CC(COc1ccccc1)NC(C)C(O)c1ccc(O)cc1 (centres undefined) [ISOXSUPRINE] | No-Dili-Concern | 0
57 | COC(=O)C1=C(C)NC(C)=C(C(=O)OC(C)C)C1c1cccc2nonc12 (centres undefined) [ISRADIPINE] | Less-Dili-Concern | 3
